From patent US20260356834A1, “ANTICONVULSIVE COMPOUNDS AND USES THEREOF” (Jazz Pharmaceuticals Research UK Limite, priority 2023, published 2026)
Several values for one entry are separate records, joined by “and”; a condition that tells them apart may be missing. Equal entries are not always repeated. Marks after values point to notes of the source that are not given here.

Columns and labels:
DBA/2 mice = assay: mouse audiogenic seizure test; assay type: in vivo
Source text: The Audiogenic Seizure Test, which detects anticonvulsant activity, follows that described by Durmüller et al., 1993. Mice of the DBA/2 strain undergo an age-dependent sequence of convulsions (wild-running, clonic convulsion, tonic convulsion and respiratory arrest) within 60 seconds of exposure to a loud sound of 110-120 dB. The type of convulsions are consistent with aspects of generalised seizure in humans.
Male DBA/2 mice (3-4 weeks old) were supplied by Janvier Labs (53940 Le Genest-Saint-Isle, France); weight range 6-13 g at the beginning of the experiment. Animals were acclimatized to the Test Facility for 1 day after delivery and randomly housed in groups of 5 in macrolon cages on wood litter with free access to food and water.
(§1) The animal house was maintained under artificial lighting (12 hours) between 7:00 and 19:00 in a controlled ambient temperature of 22±2 °C and relative humidity between 30-70%.
Mice were individually transferred (at 3-5 minutes intervals) from the preparation room into an adjacent experimental room and body temperature was measured using a rectal thermometer (Digital Laboratory Thermometer: Model BAT-12). Immediately after, they were placed in a Plexiglas jar (Diameter=40 cm; Height=35 cm) mounted with an electric bell (110-120 dB, supplier Leroy Merlin, France). Upon activating the bell, the occurrences and latencies to wild running fits, clonic and tonic seizures were measured. Deaths were also recorded. The bell was activated until a tonic seizure occurred, or for a maximum of 60 seconds.
The experiment included groups of 10 mice per group. Experimenters were only partially blinded to treatment group as pre-treatment times were different.
The test substance was evaluated at various doses, administered i.p. (10 ml/kg) 15 or 30 minutes before the test, and compared with a vehicle control group.
Due to the number of animals tested, the experiment was divided in 2 sub-experiments on 2 separate days (7 days apart) with 5 mice per group in each sub-experiment.
Data were tested for normality using d'Agostino-Pearson Test and found to not follow a normal distribution. Statistical outliers were not identified or removed because no behavioural outliers were identified. Quantitative data (latencies) with the test substance were analyzed by comparing treated groups with vehicle control using Kruskal-Wallis test followed by Dunn's multiple comparisons test. Quantitative data with the reference substance were analyzed using Mann-Whitney U test. Quantal data (frequencies) were analyzed by comparing treated groups with vehicle control using Fisher's Exact Probability test.

RjOrl: Swiss mice = assay: mouse 6 Hz (44 mA) model of partial seizures; assay type: in vivo; settings: for Mean Forelimb Clonus +/− SEM: score 0-2; for Change from vehicle 2 (forelimb clonus): vs vehicle 2 (1:2:17)
Source text: The 6 Hz (44 mA) model of partial seizures, which detects anticonvulsant activity, follows that described by Brown et al. 1953.
[…] A decrease in forelimb clonus score is indicative of protection from seizure and an anticonvulsive effect.
When conducted at a 44 mA stimulus intensity in mice, the 6 Hz test can differentiate compounds with potential for the treatment of focal-onset seizures that are often resistant to current anti-epileptic drugs.
Male RjOrl: Swiss mice (Janvier Labs, 53940 Le Genest-Saint-Isle, France), 5 weeks old, weighing 27-38 g at the beginning of the experiment. Animals were acclimatized to the Test Facility for at least 5 days after delivery and randomly housed in groups of 5 to 8 in macrolon cages on wood litter with free access to food and water.
as §1
Before transcorneal stimulation, a drop of tetracaine solution (1%) was applied on each eye of the mouse for local anesthesia. Between 1-10 minutes later and at the designated pre-treatment (see below), the mice were administered a rectangular current (44 mA, rectangular pulse: 0.2 ms pulse width, 3 s duration, (6 Hz) via corneal electrodes connected to a constant current shock generator (Ugo Basile: type 7801).
The results for the number of seizures as reflected by forelimb clonus were recorded immediately after current administration. Forelimb clonus was scored as absent (0=no forelimb clonus), mild (1=clonus with one forelimb) and strong (2=clonus with both forelimbs). The experimenters were blinded to the treatment. […]
The administration volume was 10 mL/kg.
Due to the number of animals tested, the experiment was divided in 2 sub-experiments on 2 consecutive days with equivalent numbers of mice per group and per sub-experiment.
Data were discrete values so considered to be non-normally distributed based on validation data, therefore non-parametric tests were utilized. Quantitative data (scores) with the test substance were analyzed by comparing test compound-treated groups with the 1:2:17 vehicle control using Kruskal-Wallis test with Dunn's multiple comparisons test when the Kruskal-Wallis test was significant. Quantitative data with the reference substance were analyzed using Mann-Whitney U test as compared to saline vehicle.

C57BL/6J mice = assay: mouse maximal electroshock seizure threshold model using minimal sample sizes (mini-MEST)
Procedure: An increase in seizure threshold is indicative of an anticonvulsive effect.
The ability of a test compound to alter the stimulus intensity, expressed as current (mA), required to induce the presence of tonic hind limb extensor convulsions, is assessed in the MEST.
In the mini-MEST test, a lower n number is used.
Male C57BL/6J mice were housed in groups of 6. Mice were kept under standard conditions (12 hour light cycle; light intensity of 25-75 lux) and fed a diet of certified rodent CR 14% protein rodent diet (LabDiet® 4CR4). Mice were 8-9 weeks old at the start of the study.
Naïve mice were acclimatised to the procedure room in their home cages for up to 7 days, with food and water available ad libitum.
All animals were weighed at the beginning of the study and randomly assigned to treatment groups based on a mean distribution of body weight across groups.
The first animal within a treatment group was given a shock at the expected or estimated CC50 current. For subsequent animals, the current was lowered or raised depending on the convulsions outcome from the preceding animal in log scale intervals.
Data generated from each treatment group were used to calculate the CC50±SEM values for the treatment group.
Vehicle: (5% ethanol, 10% Solutol® (Kolliphor® HS 15), 85% saline). 1 mL of ethanol, 2 mL of Solutol™ were warmed to 60 °C, in 17 mL of 0.9% saline.
Test compounds: 5-50 mg/kg in a 1:2:17 ethanol:Solutol®:saline formulation (as used for vehicle).

[1] = 25 mg/kg p.o., 15 min post dose
[2] = 25 mg/kg p.o., 60 min post dose
[3] = 30 mg/kg i.p., 30 min post dose
[4] = 50 mg/kg p.o., 30 min post dose
[5] = 50 mg/kg p.o., 60 min post dose
[6] = 50 mg/kg p.o., 120 min post dose
[7] = 50 mg/kg p.o., 240 min post dose

## CCCc1cc(O)c(-c2c(C)c(Cl)cn3ccnc23)c(O)c1 [Compound 4, 2-(6-Chloro-7-methylimidazo[1,2-a]pyridin-8-yl)-5-propylbenzene-1,3-diol]
DBA/2 mice; 3 mg/kg i.p., 30 min
  Clonic convulsion - latency, Change from vehicle: −5%
  Clonic convulsion - presence, %: 100%
  Clonic convulsion - presence, Change from vehicle: 0%
  Tonic convulsion - latency, Change from vehicle: +6%
  Tonic convulsion - presence, %: 90%
  Tonic convulsion - presence, Change from vehicle: −10%
  Wild running - latency, Change from vehicle: −2%
  Wild running - presence, %: 100%
  Wild running - presence, Change from vehicle: 0%
DBA/2 mice; 10 mg/kg i.p., 30 min
  Clonic convulsion - latency, Change from vehicle: +5%
  Clonic convulsion - presence, %: 90%
  Clonic convulsion - presence, Change from vehicle: −10%
  Tonic convulsion - latency, Change from vehicle: +24%
  Tonic convulsion - presence, %: 70%
  Tonic convulsion - presence, Change from vehicle: −30%
  Wild running - latency, Change from vehicle: +4%
  Wild running - presence, %: 100%
  Wild running - presence, Change from vehicle: 0%
DBA/2 mice; 30 mg/kg i.p. vs vehicle
  latency to clonic convulsions (significance in words): significantly increased
  latency to tonic convulsions (significance in words): significantly increased
  latency to wild running (significance in words): significantly increased
DBA/2 mice; 30 mg/kg i.p., 15 min
  Clonic convulsion - latency, Change from vehicle: +368%**
  Clonic convulsion - presence, %: 70%
  Clonic convulsion - presence, Change from vehicle: −30%
  Tonic convulsion - latency, Change from vehicle: +426%***
  Tonic convulsion - presence, %: 10%
  Wild running - latency, Change from vehicle: +608%**
  Wild running - presence, %: 70%
  Wild running - presence, Change from vehicle: −30%
DBA/2 mice; 60 mg/kg i.p. vs vehicle
  latency to clonic convulsions (significance in words): significantly increased
  latency to tonic convulsions (significance in words): significantly increased
  latency to wild running (significance in words): significantly increased
DBA/2 mice; 60 mg/kg i.p., 30 min, n = 9
  Clonic convulsion - latency, Change from vehicle: +614%***
  Clonic convulsion - presence, %: 11%
  Tonic convulsion - latency, Change from vehicle: +426%***
  Tonic convulsion - presence, %: 0%
  Wild running - latency, Change from vehicle: +1150%***
  Wild running - presence, %: 22%
DBA/2 mice; 3, 10 or 30 mg/kg i.p.
  number of mice displaying clonic convulsions (significance in words): no significant differences
  number of mice displaying wild running (significance in words): no significant differences
DBA/2 mice; 3 and 10 mg/kg i.p. vs vehicle
  latency to clonic convulsions (significance in words): no significant differences
  latency to wild running (significance in words): no significant differences
DBA/2 mice; 3 or 10 mg/kg i.p.
  number of mice displaying tonic convulsions (significance in words): no significant differences
DBA/2 mice; 3 or 10 mg/kg i.p. vs vehicle
  latency to tonic convulsions (significance in words): no significant differences
RjOrl: Swiss mice; 10 mg/kg i.p., 30 min
  Mean Forelimb Clonus +/− SEM: 1.00 ± 0.11
  Change from vehicle 2 (forelimb clonus): +54%
RjOrl: Swiss mice; 30 mg/kg i.p., 15 min
  Mean Forelimb Clonus +/− SEM: 0.30 ± 0.11
  Change from vehicle 2 (forelimb clonus): −54%
RjOrl: Swiss mice; 60 mg/kg i.p., 30 min
  Mean Forelimb Clonus +/− SEM: 0.30 ± 0.11
  Change from vehicle 2 (forelimb clonus): −54%
RjOrl: Swiss mice; 100 mg/kg i.p., 30 min
  Mean Forelimb Clonus +/− SEM: 0.11 ± 0.07
  Change from vehicle 2 (forelimb clonus): −83%**
RjOrl: Swiss mice; 60 and 100 mg/kg i.p.
  sedation: ***p < 0.001; relatively low forelimb seizure scores in the 1:2:17 vehicle group may impact data interpretation; slight to moderate sedation observed with Compound 4 at 60 and 100 mg/kg.
C57BL/6J mice; [1]
  CC50 +/− SEM: 80.9 ± 3.7 mA
  Change from vehicle (CC50): 216%
C57BL/6J mice; 25 mg/kg p.o., 30 min post dose
  CC50 +/− SEM: 92.9 ± 1.1 mA and 53.5 ± 3.4 mA and 106.6 ± 1.1 mA
C57BL/6J mice; [2]
  CC50 +/− SEM: 70.5 ± 1.1 mA
  Change from vehicle (CC50): 176%
C57BL/6J mice; [3]
  CC50 +/− SEM: 70.5 ± 1.1 mA
  Change from vehicle (CC50): 140%
C57BL/6J mice; [4]
  CC50 +/− SEM: 80.9 ± 1.1 mA
  Change from vehicle (CC50): 145%
C57BL/6J mice; [5]
  CC50 +/− SEM: >131.0 mA
  Change from vehicle (CC50): >297%
C57BL/6J mice; [6]
  CC50 +/− SEM: 61.4 ± 1.1 mA
  Change from vehicle (CC50): 100%
C57BL/6J mice; [7]
  CC50 +/− SEM: 61.4 ± 3.7 mA
  Change from vehicle (CC50): 100%
